Structures can show the parent of a compound that is named as a salt. Marks after values point to notes of the source that are not given here.
Test system: guinea pigs
Experiment: Local anesthetic activity (infiltration anesthesia), pin-prick method after intradermal injection
Type: in vivo, guinea pig
Details: 0.1 ml intradermal

Compound: CCCCN1CCCCC1CCN(c1ccccc1)C1CCc2ccccc2C1 (stereo not drawn) [Bu-CLAC-34•HCl]
- Dermal anesthesia after intradermal injection: non-responding pinpricks of 36 (0.05%, 15 min): 36/36
- Dermal anesthesia after intradermal injection: non-responding pinpricks of 36 (0.05%, 30 min): 36/36
- Dermal anesthesia after intradermal injection: non-responding pinpricks of 36 (0.05%, 60 min): 36/36
- Dermal anesthesia after intradermal injection: non-responding pinpricks of 36 (0.05%, 90 min): 36/36
- Dermal anesthesia after intradermal injection: non-responding pinpricks of 36 (0.05%, 120 min): 36/36
- Dermal anesthesia after intradermal injection: non-responding pinpricks of 36 (0.10%, 15 min): 36/36
- Dermal anesthesia after intradermal injection: non-responding pinpricks of 36 (0.10%, 30 min): 36/36
- Dermal anesthesia after intradermal injection: non-responding pinpricks of 36 (0.10%, 60 min): 36/36
- Dermal anesthesia after intradermal injection: non-responding pinpricks of 36 (0.10%, 90 min): 36/36
- Dermal anesthesia after intradermal injection: non-responding pinpricks of 36 (0.10%, 120 min): 36/36

Compound: c1ccc(N(CCC2CCCCN2)C2CCc3ccccc3C2)cc1 (stereo not drawn) [CLAC-34•HCl]
- Dermal anesthesia after intradermal injection: non-responding pinpricks of 36 (0.05%, 15 min): 35/36*
- Dermal anesthesia after intradermal injection: non-responding pinpricks of 36 (0.05%, 30 min): 36/36**
- Dermal anesthesia after intradermal injection: non-responding pinpricks of 36 (0.05%, 60 min): 6/36
- Dermal anesthesia after intradermal injection: non-responding pinpricks of 36 (0.05%, 90 min): 36/36
- Dermal anesthesia after intradermal injection: non-responding pinpricks of 36 (0.05%, 120 min): 36/36
- Dermal anesthesia after intradermal injection: non-responding pinpricks of 36 (0.10%, 15 min): 36/36
- Dermal anesthesia after intradermal injection: non-responding pinpricks of 36 (0.10%, 30 min): 36/36
- Dermal anesthesia after intradermal injection: non-responding pinpricks of 36 (0.10%, 60 min): 36/36
- Dermal anesthesia after intradermal injection: non-responding pinpricks of 36 (0.10%, 90 min): 36/36
- Dermal anesthesia after intradermal injection: non-responding pinpricks of 36 (0.10%, 120 min): 36/36

Compound: CCCN(CCC)CCN(c1ccccc1)C1CCc2ccccc2C1 (stereo not drawn) [CLAC-PP•HCl]
- Dermal anesthesia after intradermal injection: non-responding pinpricks of 36 (0.05%, 15 min): 36/36
- Dermal anesthesia after intradermal injection: non-responding pinpricks of 36 (0.05%, 30 min): 36/36
- Dermal anesthesia after intradermal injection: non-responding pinpricks of 36 (0.05%, 60 min): 36/36
- Dermal anesthesia after intradermal injection: non-responding pinpricks of 36 (0.05%, 90 min): 36/36
- Dermal anesthesia after intradermal injection: non-responding pinpricks of 36 (0.05%, 120 min): 36/36
- Dermal anesthesia after intradermal injection: non-responding pinpricks of 36 (0.10%, 15 min): 36/36
- Dermal anesthesia after intradermal injection: non-responding pinpricks of 36 (0.10%, 30 min): 36/36
- Dermal anesthesia after intradermal injection: non-responding pinpricks of 36 (0.10%, 60 min): 36/36
- Dermal anesthesia after intradermal injection: non-responding pinpricks of 36 (0.10%, 90 min): 36/36
- Dermal anesthesia after intradermal injection: non-responding pinpricks of 36 (0.10%, 120 min): 36/36

Compound: CCN(CC)CC(=O)Nc1c(C)cccc1C [Lidocaine.HCl, lidocaine, reference compound]
- Dermal anesthesia after intradermal injection: non-responding pinpricks of 36 (0.25%, 15 min): 31/36
- Dermal anesthesia after intradermal injection: non-responding pinpricks of 36 (0.25%, 30 min): 21/36
- Dermal anesthesia after intradermal injection: non-responding pinpricks of 36 (0.25%, 60 min): 6/36
- Dermal anesthesia after intradermal injection: non-responding pinpricks of 36 (0.25%, 90 min): 4/36
- Dermal anesthesia after intradermal injection: non-responding pinpricks of 36 (0.25%, 120 min): 1/36
- Dermal anesthesia after intradermal injection: non-responding pinpricks of 36 (0.50%, 15 min): 24/36
- Dermal anesthesia after intradermal injection: non-responding pinpricks of 36 (0.50%, 30 min): 18/36
- Dermal anesthesia after intradermal injection: non-responding pinpricks of 36 (0.50%, 60 min): 11/36
- Dermal anesthesia after intradermal injection: non-responding pinpricks of 36 (0.50%, 90 min): 10/36
- Dermal anesthesia after intradermal injection: non-responding pinpricks of 36 (0.50%, 120 min): 9/36
- Dermal anesthesia after intradermal injection: non-responding pinpricks of 36 (1.00%, 15 min): 32/36
- Dermal anesthesia after intradermal injection: non-responding pinpricks of 36 (1.00%, 30 min): 28/36
- Dermal anesthesia after intradermal injection: non-responding pinpricks of 36 (1.00%, 60 min): 9/36
- Dermal anesthesia after intradermal injection: non-responding pinpricks of 36 (1.00%, 90 min): 8/36
- Dermal anesthesia after intradermal injection: non-responding pinpricks of 36 (1.00%, 120 min): 6/36
